ChEMBL document CHEMBL4706695, “Small molecule approaches to treat autoimmune and inflammatory diseases (Part I): Kinase inhibitors” (Bioorg Med Chem Lett, 2021)

Molecular target: Tyrosine-protein kinase BTK (Homo sapiens, UniProt Q06187)
Assay: Inhibition of BTK (unknown origin) One-hour enzymatic assay without pre-incubation

Tyrosine-protein kinase BTK, sequence (Q06187 whole entry): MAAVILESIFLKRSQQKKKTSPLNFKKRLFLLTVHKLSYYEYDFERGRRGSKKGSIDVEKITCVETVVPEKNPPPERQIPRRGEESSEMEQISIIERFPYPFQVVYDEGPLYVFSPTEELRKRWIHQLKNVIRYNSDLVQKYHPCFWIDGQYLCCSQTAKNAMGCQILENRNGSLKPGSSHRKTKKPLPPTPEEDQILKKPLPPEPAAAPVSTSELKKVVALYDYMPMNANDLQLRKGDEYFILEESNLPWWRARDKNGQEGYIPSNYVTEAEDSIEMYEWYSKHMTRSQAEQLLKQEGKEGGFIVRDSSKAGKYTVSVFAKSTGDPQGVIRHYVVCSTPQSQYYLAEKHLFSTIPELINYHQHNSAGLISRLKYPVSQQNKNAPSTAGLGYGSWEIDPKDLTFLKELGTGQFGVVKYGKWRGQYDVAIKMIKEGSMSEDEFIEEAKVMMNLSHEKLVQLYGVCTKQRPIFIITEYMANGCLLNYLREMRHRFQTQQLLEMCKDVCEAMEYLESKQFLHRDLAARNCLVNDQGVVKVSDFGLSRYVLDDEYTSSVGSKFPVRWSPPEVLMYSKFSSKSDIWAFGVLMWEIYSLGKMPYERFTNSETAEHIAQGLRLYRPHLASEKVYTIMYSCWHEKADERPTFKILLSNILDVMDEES

IC50	SMILES
0.5 nM	N#CN1CCC[C@@H](n2nc(-c3ccc(Oc4ccc(F)cc4F)cc3)c(C(N)=O)c2N)C1
33 nM	C=CC(=O)N1CCC[C@@H](c2ccc(C(N)=O)c3[nH]ccc23)C1 [ELSUBRUTINIB]
